Values of other authors as cited in patent US5869086A, “Systems for the controlled release of pilocarpine” (LTS Lohmann Therapie-Systeme GmbH, priority 1993, dated 1999).

What was measured:
[1] = system: adults; conditions: systemic, single maximum dose for adults; German Federal Board of Health
[2] = system: heart
[3] = system: patients suffering from glaucoma (eye); conditions: applied to the eye
[4] = system: postganglionic, parasympathetic acetylcholine receptors; conditions: textbook

Question: With `CC[C@@H]1C(=O)OC[C@@H]1Cc1cncn1C` [pilocarpine, (3S, 4R)-3-ethyl-4,5-dihydro-4-(1-methyl-1H-imidazole-5-ylmethyl)-2(3H)-furanone] as the compound, how does the “dosage at which risks are likely to arise” value [1] read?
Answer: Its value is “below 20 mg”.

Question: And the “hazard of high systemic doses” value ([2]; high doses, effect on the heart)?
Answer: The value was “hazardous to patients' life and health”.

Question: What about the “impairment of the heart function compared with carbachol” value ([2]; textbook, general application) of the same compound?
Answer: Its value is “impairment of the heart function is more distinct”.

Question: And the “duration of one application” value [3]?
Answer: Its value is 4 to 6 h.

Question: And the “action on acetylcholine receptors” value [4]?
Answer: Its value is “specifically stimulates the postganglionic, parasympathetic acetylcholine receptors”.
